Source: patent US7122193B1 (priority 1994, dated 2006)

Columns and labels:
Type in all cases: cell-based, mouse
[1] = system: TCR of peptide-primed lymph node T-cells
[2] = system: peptide-primed T lymphocytes from BALB/c mice
[3] = system: peptide-primed T lymphocytes from BALB/c mice; remark: listed apart in the source

CH3CO-(D)Thr-(D)Asp-(D)Lys-(D)Tyr-(D)Thr-(D)Ile-(D)Lys-(D)Trp-(D)Val-(D)Ala-(D)Phe-(D)Leu-(D)Lys-NH2
IL-2 secretion by T-cells from mice immunized against the L-peptide 103–115 in the presence of the peptide [1]: remains unchanged | IL-2 production of lymph node cells of mice immunized with parent peptide 103–115, stimulated in vitro by the peptide [2]: No IL-2 production was observed | maximal IL-2 secretion measured using CTL-L cells in the presence of Con A [2]: 5 570 cpm | proliferation of T-lymphocytes of mice immunized with retro-inverso analogue 103–115, in response to the peptide [3]: proliferated in response to the homologous peptide | proliferation of lymph node cells of mice immunized with parent peptide 103–115, stimulated in vitro by the peptide [3]: did not proliferate in vitro
